From patent publication US9428665B2, “Photopolymerizable inkjet ink, ink cartridge, and inkjet recording device” (Ricoh Company, Ltd., priority 2011, dated 2016)
Read-outs that look alike come from different tables or passages of the source.

Experiments:
[1] = cited from earlier work
[2] = test method: the maximization method; cited from earlier work
female mice = test: Skin sensitization test based on the LLNA (Local Lymph Node Assay), SI value by BrdU intake; format: in vivo; settings: test substance 50.0 w/v % in acetone:olive oil 4:1, 25 μL/auricle once/day × 3 days, SI less than 3 = negative for skin sensitization
Description: Here, the photopolymerizable monomer negative for skin sensitization refers to at least one of the following compounds (1) to (3): • (1) a compound having a Stimulation Index (SI value) of less than 3, where the Stimulation Index indicates the extent of sensitization as measured by a skin sensitization test based on the LLNA (Local Lymph Node Assay); • (2) a compound evaluated as “negative for skin sensitization” or “no skin sensitization” in its MSDS (Material Safety Data Sheet); and • (3) a compound evaluated as “negative for skin sensitization” or “without skin sensitization” in literature [e.g., Contact Dermatitis 8 223-235 (1982)]. […]
According to the skin sensitization test based on the LLNA (Local Lymph Node Assay), the SI value was measured in the below described manner. […]
Before treated with the test substances, the positive control or the vehicle control, female mice were acclimated for 8 days including 6-day quarantine. […] Based on the body weights measured 2 days before the initiation of sensitization, they were categorized into 2 groups (4 mice/group) by the body weight stratified random sampling method so that the body weight of each individual was within ±20% of the average body weight of all the individuals. […]

[3] = in vivo; cited from earlier work
[4] = test method: OECD test guideline 406

Q: With “Caprolactone-modified dipentaerythritol hexaacrylate [DPCA-60]” as the compound, how does the “skin sensitization evaluated in the MSDS” value ([1]; in vivo) read?
A: Its value is “negative”.

Q: With `C=C(C)C(=O)OCCCCC` [n-AMYL METHACRYLATE, n-Pentyl methacrylate] as the compound, how does the “skin sensitization evaluated in the literature” value [2] read?
A: Its value is “negative”.

Q: With `CCc1cc(CC)c2sc3ccccc3c(=O)c2c1` [2,4-Diethylthioxanthone] as the compound, how does the “SI value (Stimulation Index)” value (female mice) read?
A: The value was 1.4.

Q: Which “skin sensitization evaluated in the MSDS” value [1, 4] does the source give for `CSc1ccc(C(=O)C(C)(C)N2CCOCC2)cc1` [Example C2, 2-Methyl-1-[4-(methylthio)phenyl]-2-morpholinopropan-1-one] here?
A: The value was “none”.

Q: With `CCC(Cc1ccccc1)(C(=O)c1ccc(N2CCOCC2)cc1)N(C)C` (centres unmarked) [Example C3, 2-Benzyl-2-dimethylamino-1-(4-morpholinophenyl)butanone-1] as the compound, how does the “skin sensitization evaluated in the MSDS” value [1, 4] read?
A: The value was “none”.

Q: Which “skin sensitization evaluated in the literature” value [2] does the source give for `C=C(C)C(=O)OC(C)(C)C` [LIGHT ESTER TB, t-Butyl methacrylate] here?
A: The value was “negative”.

Q: For `CCC(Cc1ccc(C)cc1)(C(=O)c1ccc(N2CCOCC2)cc1)N(C)C` (centres unmarked) [Example C1, 2-Dimethylamino-2-(4-methylbenzyl)-1-(4-morpholin-4-yl-phenyl) butan-1-one], which “skin sensitization evaluated in the MSDS” value [1, 4] is on record?
A: Its value is “none”.

Q: For `C=CC(=O)NCCO` [HEAA, Hydroxyethylacryl amide], which “skin sensitization evaluation (MSDS or literature)” value [3] is on record?
A: Its value is “none”.

Q: With `CCCCC(CC)COC(=O)c1ccc(N(C)C)cc1` (centres unmarked) [2-ethylhexyl p-dimethylaminobenzoate] as the compound, how does the “skin sensitization evaluated in the MSDS” value [1, 4] read?
A: The value was “none”.

Q: With `C=COCCOCCOCCOC=C` [Example B1, Triethylene glycol divinyl ether] as the compound, how does the “skin sensitization evaluated in the MSDS” value [1, 4] read?
A: Its value is “negative”.

Q: Which “skin sensitization evaluated in the literature” value [2] does the source give for `C=C(C)C(=O)OCCCCCC` [HEXYL METHACRYLATE, n-Hexyl methacrylate] here?
A: Its value is “negative”.
